# Results reported in patent publication US8486949B2, “Use of azaperone for improving growth performance” (Elanco Animal Health Ireland Limited, priority 2008, dated 2013).
# How the values were obtained:
# weaned pigs [1] = assay: Behaviour of the animals per pen (groups 5 and 6: pigs lying down, eating or drinking, hierarchical fights); assay type: in vivo
# Protocol: This study was a controlled parallel study with 4 sequential groups of approximately 250 weaned pigs each. The first and third group were treated with azaperone via the drinking water for 3 consecutive days. The second and fourth group were control groups treated with placebo (plain drinking water). After the completion of these four groups, two additional groups (one treated with azaperone and one control group) were included in the study to investigate more in detail the effect of the azaperone treatment on the behaviour of the pigs. In each of these additional groups, 5 pens of approximately 12 pigs were enclosed.
# In order to assess the effect of the azaperone treatment on the behaviour of the animals after weaning, the occurrence of hierarchical fights was followed in groups 1 to 4 and recorded by the Principal Investigator during a period of 1 week after weaning. Every day a behaviour score of 0 to 2 was given to each pen:
# In groups 1 to 4, behaviour of the pigs was always scored as normal although hierarchical fighting was reported on the farm. […] These two additional groups (one treated with azaperone and one control group) were closely monitored for behavioural changes. During the first 7 hours after weaning and movement to the nurseries, the occurrence and severity of hierarchical fights, the number of pigs laying down, and the number of pigs eating or drinking, was recorded. […]
# weaned pigs [2] = assay: Preclinical study of the effects of azaperone administered via drinking water: body weight per pig; assay type: in vivo
# Protocol: Preclinical Study of the Effects of Azaperone Administered Via Drinking Water The study was performed in weaned pigs to investigate the effect of azaperone that was continuously orally administered via drinking water on behaviour, feed conversion, growth and homogeneity of growth. Groups of approximately 250 pigs were enrolled in the study starting from the moment they were weaned. The pigs were housed according to everyday farming conditions in a conventional pig farm. All pigs were housed in similar buildings. Each group was housed in 2 compartments, gilts and barrows were housed in separate compartments. Pigs were kept in pens of approximately 12 individuals each. After weaning, the piglets were housed in continuous artificial light for the first 48 hours. Afterwards, pigs were housed in continuous darkness for the further duration of the study, except during observations (twice a day). During the course of the study, pigs were not vaccinated. A metaphylactic colistine treatment via drinking water was applied in each group starting from the fifth day after weaning. Treatment continued for seven days. Pigs were fed ad libitum. Troughs were filled automatically with a computerized system that records the supplied weight of feed per pen. During the first ten days of the nursery period, pigs were fed a pelleted weaner feed which had also been available to the piglets in the farrowing unit. Between the 10th and 15th day at the nursery, the weaner feed was gradually replaced by grower pellets which have been given until the 35th day. Finally a switch was made between the 35th and the 40th day from grower pellets to starter pellets. Tap water was available during the whole period of the study and was supplied via a water nipple in the feeding trough. The drinking water comprising azaperone was obtained by diluting Stresnil™ injection in water to obtain a concentration of 6 mg azaperone per liter drinking water. A primary dilution was prepared by diluting 90 ml of Stresnil™ 4% injectable solution with tap water to obtain 6 liters of preparation. This primary dilution was linked for 24 hours with an automatic dosing system which continuously diluted the preparation in the drinking water at a rate of 1 to 100. One preparation of the primary dilution was sufficient to treat 600 liters of drinking water which exceeded the anticipated daily consumed volume of water by the pigs in one compartment. The two following days, a new primary dilution was made fresh each morning and linked to the automatic dosing system for 24 hours. This study was a controlled parallel study with 4 sequential groups of approximately 250 weaned pigs each. The first and third group were treated with azaperone via the drinking water for 3 consecutive days. The second and fourth group were control groups treated with placebo (plain drinking water). After the completion of these four groups, two additional groups (one treated with azaperone and one control group) were included in the study to investigate more in detail the effect of the azaperone treatment on the behaviour of the pigs. In each of these additional groups, 5 pens of approximately 12 pigs were enclosed. On day one of the test period, water containing 6 mg azaperone per liter or placebo, was made available. Starting from the fourth day, the drinking water no longer contained azaperone. All pigs followed the normal procedures for further fattening. No pigs were brought to the slaughterhouse during the study (3 days dosing and 39 days follow-up). Body weights were determined for all pigs in groups 1 to 4. The body weight of each individual animal was determined a first time at the start of the study, just before movement to the nursery and a second time at the end of the study, after a period of 42 days in the nursery. […]
# pigs = conditions: cited from earlier work
smiles,measurement,setting,value
O=C(CCCN1CCN(c2ccccn2)CC1)c1ccc(F)cc1 [azaperone],number of pigs lying down or eating versus placebo,"weaned pigs [1]; groups 5 and 6, first 7 hours after initiation of treatment, 6 mg/liter drinking water",no difference
same,sedative effect,"weaned pigs [1]; oral via drinking water, 6 mg/liter",absence of a sedative effect
same,body weight gained during the study,"weaned pigs [2]; 6 mg azaperone per liter drinking water for 3 days, 42 day test period, mean±SD",16.3 ± 3.31 kg
same,Final BW CoV (coefficient of variation),weaned pigs [2]; after 42 days in the nursery,18%
same,Final BW,"weaned pigs [2]; after 42 days in the nursery, 6 mg/liter drinking water for first 3 days",23.62 kg
same,body weight gain CoV (coefficient of variation),weaned pigs [2]; over 42 days,20%
same,body weight gain,"weaned pigs [2]; over 42 days, 6 mg/liter drinking water for first 3 days",16.34 kg
same,homogeneity of body weight distribution at the end of the testing period,weaned pigs [2]; versus placebo groups,more homogenous body weight distribution
same,"effect on weight gain, feed consumption or feed efficiency","pigs; intramuscular administration to pigs, Gonyou et al., J. Anim. Sci. 1988",did not had significant effect
same,effect in promoting relative growth rate,"pigs; intramuscular injection to pigs, Blackshaw, Aust. Vet. J. 1981",no effect
same,weight gain,"pigs; intramuscular injection to pigs, Porter and Slusser, Veterinary Medicine 1985",increased weight gain
